Reference: patent publication US11767298B2, “Substituted benzimidazoles as inhibitors of transforming growth factor-β kinase” (Duke University, priority 2016, dated 2023)

Legend:
GCK = GCK (Homo sapiens, UniProt Q12851); experiment: Kinase profiling (Dundee), GCK; assay type: biochemical
Protocol: (§1) Kinase selectivity profiling. The selectivity profile of HS-206 to inhibit mammalian kinases was tested against a panel of 140 kinases at a single concentration of 10 μM. Tests were performed using a radiolabeld (^33P-ATP) filter-binding assay at the International Centre for Kinase Profiling at the University of Dundee, UK (http://www.kinase-screen.mrc.ac.uk/).
(§2) This panel contains members of all major kinase families, including tyrosine kinases (TK), tyrosine kinase-like (TKL), sterile serine/threonine (STE), and CDK/MAPK/GSK/CLK (CMGC). […] For these kinases, IC50 values were determined (Table 1).

GFP-PfPK9 = GFP-PfPK9 (Plasmodium falciparum, UniProt Q8IEG4); experiment: ATP-competitive binding assay (ATP-sepharose pull-down, FLECS); settings: GFP-PfPK9; Kd calculated from EC50 of ATP pull-down dose-response; read-out: Kd, app
Sequence of GFP-PfPK9 (Q8IEG4 entry or part of it): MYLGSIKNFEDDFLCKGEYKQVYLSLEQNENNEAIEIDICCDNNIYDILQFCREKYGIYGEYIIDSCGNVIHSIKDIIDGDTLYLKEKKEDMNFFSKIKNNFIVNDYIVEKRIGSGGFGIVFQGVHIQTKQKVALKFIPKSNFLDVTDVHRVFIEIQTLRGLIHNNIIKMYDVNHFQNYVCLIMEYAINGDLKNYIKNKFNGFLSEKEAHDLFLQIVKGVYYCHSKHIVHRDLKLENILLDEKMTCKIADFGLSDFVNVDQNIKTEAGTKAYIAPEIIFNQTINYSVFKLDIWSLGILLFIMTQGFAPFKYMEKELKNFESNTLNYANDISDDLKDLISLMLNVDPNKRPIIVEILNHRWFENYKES
Protocol: Primary small-molecule screen. A small-molecule screen was performed similar to a previously reported fluorescence linked enzyme chemoproteomic strategy (FLECS). Briefly, HEK293-GFP-PfPK9 cells were grown in 182-cm^2 tissue culture flasks (Genesee Scientific) and harvested at ˜80% cell confluency. Before assays the culture medium was aspirated, cells were rinsed with ice cold PBS and then they were removed with a cell scraper. Cells were pelleted by centrifugation (2,000 rpm, 4° C., 2 min) and immediately lysed for assays. The pellet was suspended in buffer A (25 mM HEPES, pH 7.4, 150 mM NaCl, 60 mM MgCl2, 1 mM DTT) with 1 μM microcystin, 0.1% Triton X-100 plus a Roche Complete protease inhibitor tablet and then placed on ice for 30 min to facilitate lysis. The supernatant was collected after centrifugation (4,300 rpm, 4° C., 5 min) and used in subsequent screening and titrations experiments. For screening, the supernatant was added to ATP-sepharose beads (1:1) and incubated with agitation at 4° C. for at least 1 hr to allow binding. Following this incubation, the mixture was centrifuged, the ATP resin was washed with 9 column volumes of buffer A with 1 M NaCl and then 9 column volumes of buffer A. The ATP-sepharose medium was reconstituted as a 1:1 slurry with buffer A and then added to 96-well filter plates (50 μL/well) (Corning #3505) using a multichannel pipette (Rainin). The filter plate was on top of black 96-well catch plates (Corning #3915). An ATP dilution series (1-200 mM) was added to each plate as a positive control and DMSO was the negative control. Compounds and controls were all added to 50 μL per well in buffer A. For screening, compounds were tested in singlicate at 500 μM. The final DMSO concentration in every well was 5%. The fluorescence intensity in each well was measured on an EnVision system. Data analyses of screens were carried out in EXCEL (Microsoft, Corp.) and actives were identified as 2×background signal.
All screening positives that were verified with Western blot analysis were purchased from Enamine or Vitas-M laboratory. The purity of compounds 1-5 (shown below) was verified by high-resolution MS (Agilent). Compounds were tested in 8-point dose-response (0-500 μM) experiments in duplicate, essential as described above. The fluorescence intensity in each well was measured using an EnVision system. Dose-response analysis was performed with GraphPad Prism to acquire EC50 values. Determined EC50 values were used to calculate the observed PfPK9 Kd and reported values are the average of 2-3 independent experiments.
Stable cell line generation. The P. falciparum PK9 gene (PlasmoDB accession #PF3D7_1315100) was cloned into the pEGFP-C1 mammalian expression vector (Clontech) in frame with a […] GFP tag. For screening, HEK293 cells were transfected with the resulting PfPK9-pEGFP-C1 vector to generate HEK293-GFP-PfPK9 expressing cells using X-tremeGENE HP transfection reagent (Roche) per the manufacturer instructions. Briefly, the culture medium was replaced at 48 hours post-transfection with medium supplemented with 1 mg/mL G418 sulfate (Life Technologies) to select for stably transfected cells. Following stable cell selection, fluorescence activated cell sorting (FACS) was used to enrich for GFP-PfPK9 expressing cells. Subsequently, FACS sorted HEK293-GFP-PfPK9 cells were cultured with medium supplemented with 0.5 mg/mL G418 sulfate for all following experiments. Protein expression was verified by Western blot analysis probing for anti-GFP and by fluorescence intensity using an EnVision (PerkinElmer) system.
All 14 positive molecules were also tested for their binding affinity to PfPK9 using an optimized ATP-competitive binding assay. EC50 values ranging from low μM to low mM were observed and these EC50 values were used to derive dissociation constants as described previously. […]

Huh7 cells = experiment: Huh7 cell viability / cytotoxicity; assay type: cell-based, human; settings: concentrations up to 200 μM
Protocol: Cell-based anti-Plasmodium assays. For liver stage assays, 15,000 HepG2 or 8,000 Huh7 cells/well were added to 384-well microtiter plates using a multichannel pipette (Rainin). […] DMSO was used as the negative control. Following compound incubation at 37° C. for ˜1 hr, harvested luciferase-expressing P. berghei ANKA sporozoites were added to the plates at a density of 3,000 sporozoites/well. P. berghei ANKA sporozoites were obtained from harvesting the salivary glands of infected A. stephensi mosquitoes. The plates were spun for 10 min at 1,000 rpm, and then incubated at 37° C. for ˜45 hrs. […] After ˜45 hours at 37° C., liver cell viability was assessed using CellTiter-Fluor (Promega) and then parasite load was determined using Bright-Glo (Promega). The relative fluorescence and luminescence signal intensity of each well was evaluated with an EnVision System. The luminescence signal in the presence of compounds was normalized to the negative control (DMSO). Dose-response analysis was performed with GraphPad Prism to yield the reported EC50 values.
(§3) Specifically, their ability to inhibit P. berghei infection in two human hepatoma cell lines (HepG2 and Huh7) as well as cytotoxicity against HepG2 and Huh7 cells was determined as described above. Liver cell cytotoxicity was evaluated with two different commercially available assays, one that tests for intracellular protease activity with a fluorescence reporter and another that relies on the luminescent detection of total ATP.

MINK1 = MINK1 (Homo sapiens, UniProt Q8N4C8); experiment: Kinase profiling (Dundee), MINK1; assay type: biochemical
Sequence of MINK1 (Q8N4C8 whole entry): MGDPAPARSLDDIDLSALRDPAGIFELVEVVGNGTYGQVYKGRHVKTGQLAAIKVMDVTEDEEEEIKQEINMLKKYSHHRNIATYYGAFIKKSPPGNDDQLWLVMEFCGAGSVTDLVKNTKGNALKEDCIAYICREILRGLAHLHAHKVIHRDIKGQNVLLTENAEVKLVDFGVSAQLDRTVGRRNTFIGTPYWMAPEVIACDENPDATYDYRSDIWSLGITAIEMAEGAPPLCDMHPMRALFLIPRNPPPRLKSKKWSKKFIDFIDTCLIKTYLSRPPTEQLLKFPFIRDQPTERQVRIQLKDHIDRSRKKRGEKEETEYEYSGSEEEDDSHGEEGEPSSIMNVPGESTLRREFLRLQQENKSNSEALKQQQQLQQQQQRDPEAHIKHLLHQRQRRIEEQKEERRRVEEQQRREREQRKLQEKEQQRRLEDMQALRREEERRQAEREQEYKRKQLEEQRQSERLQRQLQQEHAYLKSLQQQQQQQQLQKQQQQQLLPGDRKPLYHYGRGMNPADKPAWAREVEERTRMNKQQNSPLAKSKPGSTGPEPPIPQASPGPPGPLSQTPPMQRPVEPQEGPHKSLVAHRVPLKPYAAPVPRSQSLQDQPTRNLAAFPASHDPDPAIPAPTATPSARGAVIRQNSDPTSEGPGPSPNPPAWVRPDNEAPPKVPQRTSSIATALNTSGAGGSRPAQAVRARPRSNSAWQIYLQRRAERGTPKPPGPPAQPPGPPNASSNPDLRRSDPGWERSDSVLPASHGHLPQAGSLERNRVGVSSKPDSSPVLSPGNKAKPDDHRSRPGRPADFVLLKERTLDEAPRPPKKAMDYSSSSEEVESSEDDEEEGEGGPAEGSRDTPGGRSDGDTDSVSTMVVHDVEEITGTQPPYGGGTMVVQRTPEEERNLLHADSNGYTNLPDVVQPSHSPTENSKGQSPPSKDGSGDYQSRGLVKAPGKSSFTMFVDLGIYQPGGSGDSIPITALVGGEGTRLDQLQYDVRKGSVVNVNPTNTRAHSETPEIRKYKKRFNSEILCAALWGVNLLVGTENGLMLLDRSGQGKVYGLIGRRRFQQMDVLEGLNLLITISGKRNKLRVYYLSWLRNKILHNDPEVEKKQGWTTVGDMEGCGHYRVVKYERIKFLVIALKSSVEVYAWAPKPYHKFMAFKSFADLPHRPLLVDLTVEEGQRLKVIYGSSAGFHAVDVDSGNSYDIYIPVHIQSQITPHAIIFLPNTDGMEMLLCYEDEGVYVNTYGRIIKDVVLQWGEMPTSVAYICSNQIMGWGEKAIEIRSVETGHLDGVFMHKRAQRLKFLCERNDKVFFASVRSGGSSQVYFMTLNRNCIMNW
Protocol: as §1, §2

HepG2 cells = experiment: HepG2 cell viability / cytotoxicity; assay type: cell-based, human; settings: HepG2; concentrations up to 200 μM
Protocol: (§4) Cell-based anti-Plasmodium assays. For liver stage assays, 15,000 HepG2 or 8,000 Huh7 cells/well were added to 384-well microtiter plates using a multichannel pipette (Rainin). After 2 hours at 37° C., compounds (0-100 μM) were added to cells in duplicate or triplicate in a final concentration of 1% DMSO. DMSO was used as the negative control. Following compound incubation at 37° C. for ˜1 hr, harvested luciferase-expressing P. berghei ANKA sporozoites were added to the plates at a density of 3,000 sporozoites/well. P. berghei ANKA sporozoites were obtained from harvesting the salivary glands of infected A. stephensi mosquitoes. The plates were spun for 10 min at 1,000 rpm, and then incubated at 37° C. for ˜45 hrs. […] After ˜45 hours at 37° C., liver cell viability was assessed using CellTiter-Fluor (Promega) and then parasite load was determined using Bright-Glo (Promega). The relative fluorescence and luminescence signal intensity of each well was evaluated with an EnVision System. The luminescence signal in the presence of compounds was normalized to the negative control (DMSO). Dose-response analysis was performed with GraphPad Prism to yield the reported EC50 values.
(§5) Anti-Plasmodium activity was evaluated in the parasite's liver stage using a previously reported high-throughput assay. In this assay, luciferase-expressing P. berghei (murine) parasites are used to infect human hepatoma cells (HepG2) and parasite load is assessed with a luminometer subsequent to evaluating HepG2 viability using a commercially available quantification kit that measures intracellular protease activity.
as §3

CLK2 = CLK2 (Homo sapiens, UniProt P49760); experiment: Kinase profiling (Dundee), CLK2; assay type: biochemical
Sequence of CLK2 (P49760 whole entry): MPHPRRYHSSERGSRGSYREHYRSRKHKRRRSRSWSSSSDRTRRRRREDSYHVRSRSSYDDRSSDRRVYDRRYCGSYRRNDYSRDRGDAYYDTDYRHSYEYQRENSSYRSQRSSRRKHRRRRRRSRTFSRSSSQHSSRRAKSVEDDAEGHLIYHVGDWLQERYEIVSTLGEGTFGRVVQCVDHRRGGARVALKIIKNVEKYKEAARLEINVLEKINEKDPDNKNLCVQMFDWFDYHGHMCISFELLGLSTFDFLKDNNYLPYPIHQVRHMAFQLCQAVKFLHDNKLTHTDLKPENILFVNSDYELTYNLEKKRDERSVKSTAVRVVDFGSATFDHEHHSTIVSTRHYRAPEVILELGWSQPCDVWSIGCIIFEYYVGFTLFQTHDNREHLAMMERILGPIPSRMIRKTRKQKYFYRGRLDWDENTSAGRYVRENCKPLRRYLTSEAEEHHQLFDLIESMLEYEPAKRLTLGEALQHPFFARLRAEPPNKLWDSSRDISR
Protocol: as §1, §2

TAK1 = molecular target: T1, TAK1 (Homo sapiens, UniProt O43318); experiment: Western Blot analysis of PROTAC-treated MDA-MB-231 cells, TAK1; assay type: cell-based
T1 construct: endogenous in cells; host or cells: MDA-MB-231
T1 sequence (O43318 whole entry): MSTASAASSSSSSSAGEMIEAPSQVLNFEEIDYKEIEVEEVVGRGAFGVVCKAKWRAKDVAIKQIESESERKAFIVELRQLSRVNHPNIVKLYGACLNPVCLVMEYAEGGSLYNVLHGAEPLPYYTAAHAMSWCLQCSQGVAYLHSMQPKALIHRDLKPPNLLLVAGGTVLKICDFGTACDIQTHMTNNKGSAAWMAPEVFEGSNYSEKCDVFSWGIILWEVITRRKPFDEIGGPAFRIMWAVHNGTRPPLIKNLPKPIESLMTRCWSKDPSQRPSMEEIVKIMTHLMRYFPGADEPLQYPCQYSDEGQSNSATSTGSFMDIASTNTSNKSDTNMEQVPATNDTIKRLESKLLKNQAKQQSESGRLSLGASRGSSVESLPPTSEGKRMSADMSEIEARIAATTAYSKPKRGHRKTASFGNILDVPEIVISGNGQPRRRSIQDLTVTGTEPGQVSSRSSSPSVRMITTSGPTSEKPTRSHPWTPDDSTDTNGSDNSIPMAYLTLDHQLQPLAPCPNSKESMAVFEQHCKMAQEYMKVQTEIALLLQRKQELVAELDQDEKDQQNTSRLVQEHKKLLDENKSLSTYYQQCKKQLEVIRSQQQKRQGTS
From the text: TAK1 is an Hsp90 client protein, which is why its expression is likely affected in these samples. […] This effect has previously been described as prozone effect. At high PROTAC concentrations, both E3 ligase and protein are saturated individually with PROTAC, so that the complex of ligase and protein can no longer be formed.

P. berghei [1] = experiment: Liver stage parasite load, luciferase-expressing P. berghei in Huh7 cells; assay type: cell-based, Plasmodium berghei ANKA; settings: Huh7 host cells, read-out: IC50 Liver state (Huh7)
Protocol: as §4, §3

PfPK9 = experiment: UBC13 phosphorylation by PfPK9 (ADP luminescence assay); assay type: biochemical, P. falciparum; settings: compared to DMSO
Protocol: Recombinant protein expression and enzyme activity assay. Recombinant GST-tagged PfPK9 was expressed in E. coli BL21(DE3) cells, purified to homogeneity, and the GST tag was cleaved with PreScission Protease (GE Healthcare). To test for inhibition of PfPK9, the ADP detection assay ADP-Glo (Promega) was used to determine ATPase activity of PfPK9 in the presence of the PfUBC13 protein substrate when treated with compounds 1 and 5. Approximately 500 nM PfPK9 was incubated with either compound (10 μM or 500 μM) for 5 min at RT in buffer containing 40 mM Tris, pH 7.5, 20 mM MgCl2, 2 mM MnCl2 and 1 mM DTT prior to assay initiation with 100 μM ATP. The assay was performed in white low-volume 384-well plates (Corning #3824) in triplicate. The assay plate was sealed and subsequently incubated for 8 hrs at 37° C. before ADP detection per manufacturer instructions. The final assay volume was 5 μL with a final concentration of 1% DMSO. A negative control was performed in 1% DMSO and heat inactivated PfPK9 (80° C. for 5 min) was used as a positive control. The luminescence intensity in each well was measured on an EnVision system. Data were normalized to the average luminescence signal of the negative control to provide relative ADP concentrations and graphs were constructed in GraphPad Prism. Data analyses were conducted from three independent experiments. […]

P. berghei [2] = experiment: Liver stage parasite load, luciferase-expressing P. berghei in HepG2 cells; assay type: cell-based, Plasmodium berghei ANKA; settings: HepG2 host cells
Protocol: as §4, §5, §3

[3] = test system: K63-linked ubiquitination; experiment: Western blot for K63-linked ubiquitination in Plasmodium blood stage; assay type: cell-based, P. falciparum; settings: 30 μM, 24 hr, blood stage parasites
Protocol: P. falciparum asexual blood-stage culture. P. falciparum 3D7 isolate was maintained under standard conditions in complete culturing medium [10.44 g/L RPMI 1640 (Invitrogen), 5.94 g/L HEPES (Invitrogen), 50 mg/L hypoxanthine (Sigma), 2.02 g/L sodium bicarbonate (Sigma), 5 g/L albuMAX II (Invitrogen), 25 mg/L gentamicin (Sigma), pH 7.2]. Parasite cultures were supplied with human red blood cells (Gulf Coast Regional Blood Center) at 1% hematocrit. To obtain synchronous cultures, Plasmodium parasites (at least 50% parasites were at the early-ring stage) were pelleted at 300×g for 7 min using a low brake setting and treated with 25 volume 5% D-sorbitol (Sigma) at 37° C. for 10 min. Treated parasites were then harvested and washed with 25 volume of complete culturing medium using the aforementioned centrifugation protocol, and diluted with the complete medium to 1% hematocrit to maintain the parasite culture at 37° C. and 5% CO2.
Protein extraction and Western blot for K63-linked ubiquitination in Plasmodium blood stage. […] Total protein lysates were heated in SDS loading buffer for 5 min at 80° C., analyzed on 4-20% Tris-Glycine polyacrylamide gels (Novex, Life Technologies) and subsequently transferred to nitrocellulose membranes. […]

Sequence of GCK (Q12851 whole entry): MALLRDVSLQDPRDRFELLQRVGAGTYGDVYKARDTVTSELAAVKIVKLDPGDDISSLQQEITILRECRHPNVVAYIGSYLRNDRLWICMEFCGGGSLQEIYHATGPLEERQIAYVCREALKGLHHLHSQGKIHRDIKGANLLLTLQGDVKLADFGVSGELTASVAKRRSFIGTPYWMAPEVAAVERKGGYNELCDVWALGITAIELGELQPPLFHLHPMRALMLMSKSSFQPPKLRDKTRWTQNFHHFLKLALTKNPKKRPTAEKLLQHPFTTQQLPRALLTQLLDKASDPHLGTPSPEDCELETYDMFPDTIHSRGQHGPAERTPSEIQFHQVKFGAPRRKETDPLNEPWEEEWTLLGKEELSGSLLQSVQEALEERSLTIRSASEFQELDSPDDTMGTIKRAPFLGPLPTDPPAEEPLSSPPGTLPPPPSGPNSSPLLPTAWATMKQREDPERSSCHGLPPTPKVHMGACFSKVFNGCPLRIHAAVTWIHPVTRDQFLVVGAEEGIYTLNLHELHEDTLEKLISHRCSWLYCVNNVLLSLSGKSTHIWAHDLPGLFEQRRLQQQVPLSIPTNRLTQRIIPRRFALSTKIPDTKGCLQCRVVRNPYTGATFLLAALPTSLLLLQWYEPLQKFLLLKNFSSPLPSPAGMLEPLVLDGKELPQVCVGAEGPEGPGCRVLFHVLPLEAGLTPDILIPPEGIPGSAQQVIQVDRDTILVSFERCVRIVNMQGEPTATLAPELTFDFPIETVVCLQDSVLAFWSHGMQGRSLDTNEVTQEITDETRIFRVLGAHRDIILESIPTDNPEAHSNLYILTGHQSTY

| IC50 (GCK) [µM] | Kd (GFP-PfPK9) [µM] | IC50 (MINK1) [µM] | IC50 (CLK2) [µM] | protein levels (TAK1) (TAK1; 0.1 μM) | protein levels (TAK1) (TAK1; higher concentrations) | Structure (SMILES) | effect on liver cell viability (Huh7 cells) | effect on liver cell viability (HepG2 cells) | IC50 (P. berghei [1]; Plasmodium berghei, Huh-7, parasite load) [µM] | IC50 (P. berghei [1]; parasite load) [µM] | UBC13 phosphorylation by PfPK9 (PfPK9) | IC50 (P. berghei [2]; Plasmodium berghei, HepG2, parasite load) [µM] | IC50 (P. berghei [2]; parasite load) [µM] | K63-linked ubiquitination [3] |
| --- | --- | --- | --- | --- | --- | --- | --- | --- | --- | --- | --- | --- | --- | --- |
| 0.43 ± 0.04 | ~0.2 | 1.9 ± 1 | 0.43 ± 0.04 |  |  | CCCn1/c(=N/C(=O)c2cccc(C(N)=O)c2)[nH]c2ccccc21 [HS-206 (1), (E)-N-(1-Propyl-1,3-dihydro-2H-benzo[d]imidazol-2-ylidene)isophthalamide] | did not affect liver cell viability even at 200 μM | did not affect liver cell viability even at 200 μM |  |  |  |  |  |  |
|  |  |  |  | reduction in protein levels | no effect | CCCn1/c(=N/C(=O)c2cccc(C(N)=O)c2)[nH]c2cc(/C=C/C(=O)NCCCOCCOCCOCCOCCOCCCNc3cccc4c3C(=O)N(C3CCC(=O)NC3=O)C4=O)ccc21 (stereo not shown) [HS-237] |  |  |  |  |  |  |  |  |
|  |  |  |  |  |  | Cc1nc(-c2cccs2)c(CCC(=O)Nc2cccc3cccnc23)s1 [compound 5] | neither compound 4 or 5 had any significant effects on cell viability | neither compound 4 or 5 had any significant effects on cell viability | 9 | 8.5 | significantly decreased | 10 | 9.7 | decreased K63-linked ubiquitination in blood stage parasites albeit to a lesser extent than compound 1 |
